Reference: patent publication EP0590919A1, “Therapeutic agents for parkinson's disease” (KYOWA HAKKO KOGYO CO., LTD., priority 1992, dated 1994)
Read-outs that look alike come from different tables or passages of the source. Marks after values point to notes of the source that are not given here.

What was measured:
[1] = system: Rats with a 6-Hydroxydopamine-Induced Unilateral Lesion of the Nigrostriatal Dopamine Pathway; assay: Augmentation of apomorphine-induced contralateral rotation in 6-hydroxydopamine-lesioned rats; assay type: in vivo; conditions: test compound 1 mg/kg orally 30 minutes before apomorphine 0.1 mg/kg s.c.; 150 minutes
Description: Then, the animals were anesthetized with sodium pentobarbital (30 mg/kg, i.p., Dainippon Pharm. Co., Ltd.) and the nigrostriatal pathway was lesioned by injection of 6-hydroxydopamine hydrobromide (8 µg, Sigma Co.) into the left medial forebrain bundle. 6-Hydroxydopamine hydrobromide was dissolved in physiological saline containing 0.05% L-ascorbic acid (Wako Pure Chem. Industries, Ltd.) to make 2 µl of solution and injected over 3 minutes.
More than 10 days after surgery, each rat was placed in a plastic bowl (30 cm in diameter). […] The number of rotations was counted with an automated rotometer, in which each 180° turn was counted as a rotation.
Test compounds were suspended in 0.3% sodium carboxymethylcellulose and administered orally at a dose of 1 mg/kg 30 minutes before the injection of apomorphine (0.1 mg/kg, s.c.). The counts of rotations were summed up every 5 minutes for 150 minutes after apomorphine administration. The total rotation counts induced by apomorphine (0.1 mg/kg, s.c.) with and without a test compound were statistically compared, using the same animals. Rats were allowed to rest more than 5 days between each experiment. Statistical comparison of the values was carried out by Sign-Wilcoxon test.

dd-strain male mice = assay: Acute toxicity test (minimum lethal dose, oral); assay type: in vivo; conditions: oral administration, three mice per group, mortality seven days after administration
Description: Test compounds were orally administered to groups of dd-strain male mice weighing 20 ± 1 g, each group consisting of three mice. Seven days after the administration, minimum lethal dose (MLD) of each compound was determined by observing the mortality.

A₂ receptor [2] = molecular target: T1, A₂ receptor (Rattus norvegicus, UniProt P30543); assay: Adenosine A₂ receptor binding test (³H-CGS 21680 binding); conditions: [^3H]CGS 21680 was used, rat corpus striatum, read-out: A2 Receptor Inhibition (%)
T1 construct: from tissue; host or cells: rat corpus striatum membrane preparation
Description: The similar procedure as in the above-described adenosine A₁ receptor binding test was repeated using rat corpus striatum to obtain the final precipitate of the tissue thereof. The precipitate was suspended in 50 mM Tris HCl buffer containing 10 mM magnesium chloride and 0.02 unit/mg tissue of adenosine deaminase (manufactured by Sigma Co.) to give a tissue concentration of 5 mg (wet weight)/ml.
The similar procedure as above was repeated to determine the radioactivity bound to the A₂ receptors using 50 µl of CGS 21680 labeled with tritium [³H-2-[p-(2-carboxyethyl)-phenethylamino]-5'-(N-ethylcarboxamide)adenosine: 40 Ci/mmol, manufactured by New England Nuclear Co. (J. Pharmacol. Exp. Ther., 251, 888 (1989)] (final concentration: 4.0 nM) in place of 50 µl of the mixture of N-ethylcarboxamidoadenosine labeled with tritium (³H-NECA: 26 Ci/mmol, manufactured by Amersham Co.) (final concentration: 3.8 nM) and cyclopentyladenosine (CPA, manufactured by Sigma Co.) (final concentration: 50 nM).
The inhibition rate of the test compound against the binding of A₂ receptors (³H-CGS 21680 binding) was calculated by the following equation: [formula] [Notes] • 1. "B" means the amount of radioactivity of ³H-CGS 21680 bound in the presence of a test compound at a concentration shown in Table 4. • 2. "T" means the amount of radioactivity of ³H-CGS 21680 bound in the absence of a test compound. • 3. "N" means the amount of radioactivity of ³H-CGS 21680 bound in the presence of 100 µM CPA.

[3] = system: Haloperidol-Induced Catalepsy; assay: Effect on haloperidol-induced catalepsy; assay type: in vivo, mice; conditions: for ED50: Mus musculus, 1 h, read-out: ED₅₀; for Number of the Animals Showing Remission: of five mice, catalepsy score not more than 4 points; for Number of the Animals Showing Remission / Remission Rate (%) / Total Score: 10 mg/kg orally; for Remission Rate (%): rate of decrease in total score based on control group; for Total Score: total catalepsy score of five mice (25 points at the full), haloperidol 1.0 mg/kg i.p.
Summary of the method: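 Mice got haloperidol 1.0 mg/kg i.p. in 0.3% CMC, then test compounds orally 1 hr later in 0.3% CMC or Tween 80/water. Catalepsy was scored on a 4.5 cm-high bar 1 hr after dosing; remission meant score ≤4 points. ED₅₀ came from Probit analysis.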

[4] = system: MPTP-treated C57BL/6 mice; assay: Effect on locomotor activity in Parkinson's disease model in mice (MPTP); assay type: in vivo; conditions: for Amount of Active Movements (average count ± S.E.M): MPTP (+)
Description: The experiment was performed by using several groups of 7-weeks-old male C57BL/6 mice (weighing 20 to 24 g, Japan SLC), each group consisting of 8 mice. MPTP (Aldrich Chemical Co., Inc.) dissolved in a physiological saline solution (Otsuka Pharmaceutical Co., Ltd.) was intraperitoneally administered to each mouse once a day for five consecutive days at a dose of 30 mg/kg. A test compound was suspended in injectable distilled water (Otsuka Phamaceutical Co., Ltd.) containing Tween 80 [polyoxyethylene (20) sorbitan monooleate]. L-DOPA (Kyowa Hakko Kogyo Co., Ltd.) was suspended in 0.3% CMC (sodium carboxylmethylcellulose) and bromocriptine was suspended in injectable distilled water. Thirty minutes after the final MPTP administration, the test compound suspensions and the control suspension [injectable distilled water (Otsuka Pharmaceutical Co., Ltd.) containing Tween 80] containing no test compound were orally administered to separate groups of the mice (0.1 ml per 10 g of body weight). […] Statistical comparison of the values was carried out by Student's t-test.

A₂ receptor [5] = molecular target: T1, A₂ receptor; assay: Adenosine A₂ receptor binding test (³H-NECA binding); conditions: for Ki: ³H-NECA binding
A₁ receptor = molecular target: T2, A₁ receptor (Cavia porcellus, UniProt P47745); assay: Adenosine A₁ receptor binding test (³H-CHA binding); set-up: species or system guinea pig; conditions: guinea pig cerebrum
T2 construct: from tissue; host or cells: guinea pig cerebrum membrane preparation
T2 sequence (P47745 1-326): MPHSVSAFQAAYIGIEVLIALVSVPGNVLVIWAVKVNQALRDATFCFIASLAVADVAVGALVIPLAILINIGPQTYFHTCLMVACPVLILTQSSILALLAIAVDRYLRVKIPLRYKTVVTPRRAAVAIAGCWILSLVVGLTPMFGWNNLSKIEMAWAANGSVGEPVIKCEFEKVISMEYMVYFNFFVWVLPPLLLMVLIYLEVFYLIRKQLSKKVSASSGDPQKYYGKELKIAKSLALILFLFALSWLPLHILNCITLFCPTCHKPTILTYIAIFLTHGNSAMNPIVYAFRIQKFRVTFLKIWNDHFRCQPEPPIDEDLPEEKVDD
Description: Cerebrum of a guinea pig was suspended in ice-cooled 50 mM Tris hydroxymethyl aminomethane hydrochloride (Tris HCl) buffer (pH 7.7) by using Polytron homogenizer (manufactured by […] Co.). […] The suspension was centrifuged under the same conditions, and the final precipitate was suspended once again in 50 mM Tris HCl buffer to give a tissue concentration of 100 mg (wet weight)/ml. The tissue suspension was incubated at 37°C for 30 minutes in the presence of 0.02 unit/mg tissue of adenosine deaminase (manufactured by Sigma Co.). The tissue suspension was then centrifuged (50,000 x g, 10 minutes), and 50 mM Tris HCl buffer was added to the precipitate to adjust the concentration of tissue to 10 mg (wet weight)/ml. […] The mixture solution was allowed to stand at 25°C for 90 minutes and then rapidly filtered by suction through a glass fiber filter (GF/C manufactured by Whatman Co.). […] The radioactivity on the filter was determined with a liquid scintillation counter (manufactured by Packard Instrument Co.). […] The inhibition constant (Ki value) shown in the table was calculated by the Cheng-Prusoff's equation.

[6] = ten mice at each dose, effective = catalepsy score 3 or less, Probit analysis, oral
[7] = test compound 2.5 mg/kg orally, 30 minutes starting 30 minutes after administration
[8] = read-out: Inhibition (%) A₂ Receptor

T1 sequence (P30543 whole entry): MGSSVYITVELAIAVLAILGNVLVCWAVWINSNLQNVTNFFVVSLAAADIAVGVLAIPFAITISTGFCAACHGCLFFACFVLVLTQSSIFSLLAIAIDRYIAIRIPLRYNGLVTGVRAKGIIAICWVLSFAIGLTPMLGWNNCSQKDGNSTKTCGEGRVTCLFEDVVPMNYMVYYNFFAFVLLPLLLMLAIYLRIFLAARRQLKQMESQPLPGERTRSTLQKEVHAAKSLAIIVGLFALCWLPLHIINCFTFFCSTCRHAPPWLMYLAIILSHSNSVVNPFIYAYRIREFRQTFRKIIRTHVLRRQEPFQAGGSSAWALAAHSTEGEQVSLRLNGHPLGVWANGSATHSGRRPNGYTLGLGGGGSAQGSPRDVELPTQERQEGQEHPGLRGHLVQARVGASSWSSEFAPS

Question: Which results are given for `CCn1c(=O)c2c(nc(/C=C/c3cc(OC)c4c(c3)OCO4)n2C)n(CC)c1=O` [Compound 107, (E)-1,3-Diethyl-8-(3-methoxy-4,5-methylenedioxystyryl)-7-methylxanthine]?
Answer: total amount of rotations (average count ± S.E.M.) test compound + apomorphine [1]: 1490 ± 146 count; MLD (dd-strain male mice): > 100 mg/kg; inhibition at 1 µM (A₂ receptor [2]; 10^-6M): 84%; inhibition at 0.1 µM (A₂ receptor [2]; 10^-7M): 93%; ED50 [3, 6]: 0.01 mg/kg; Number of the Animals Showing Remission [3]: 5; Remission Rate (%) [3]: 92%; Total Score [3]: 3; Amount of Active Movements (average count ± S.E.M) [4, 7]: 604 ±192.6 count

Question: Which “total amount of rotations (average count ± S.E.M.) test compound + apomorphine” value [1] does the source give for `CCn1c(=O)c2c(nc(/C=C/c3ccc(OC)c(C)c3OC)n2C)n(CC)c1=O` [Compound 14, (E)-8-(2,4-Dimethoxy-3-methylstyryl)-1,3-diethyl-7-methylxanthine] here?
Answer: 1378 ± 216 count

Question: And the MLD (dd-strain male mice)?
Answer: > 300 mg/kg

Question: What about the ED50 ([3]; po) of the same molecule?
Answer: 0.6 mg/kg

Question: And the “Number of the Animals Showing Remission” value [3]?
Answer: 5

Question: What about the “Remission Rate (%)” value [3] of the same molecule?
Answer: 92%

Question: What about the “Total Score” value [3] of the same molecule?
Answer: 1

Question: And the “Amount of Active Movements (average count ± S.E.M)” value ([4]; test compound 10 mg/kg orally, 30 minutes starting 30 minutes after administration)?
Answer: 817 ±163.1 count

Question: And the Ki (A₂ receptor [5])?
Answer: 1.6 nM

Question: How did the “Amount of Active Movements (average count ± S.E.M)” value ([4]; L-DOPA 300 mg/kg orally) turn out when `N[C@@H](Cc1ccc(O)c(O)c1)C(=O)O` [L-DOPA, reference compound] was run?
Answer: 561 ±271.01^1) count

Question: What about the “inhibitory activity against the depression of locomotor activity caused by MPTP” value ([4]; oral, L-DOPA 300 mg/kg, bromocriptine 40 mg/kg, Compounds (I) 10 mg/kg or less than 10 mg/kg) of the same molecule?
Answer: only a weak inhibitory activity

Question: What does the source list for `CCn1c(=O)c2c(nc(/C=C/c3ccc(OC)c(OC)c3OC)n2C)n(CC)c1=O` [Compound 8, (E)-1,3-Diethyl-7-methyl-8-(2,3,4-trimethoxystyryl)xanthine]?
Answer: total amount of rotations (average count ± S.E.M.) test compound + apomorphine [1]: 1406 ± 155 count; MLD (dd-strain male mice): > 300 mg/kg; ED50 [3, 6]: 0.23 mg/kg; Number of the Animals Showing Remission [3]: 5; Remission Rate (%) [3]: 92%; Total Score [3]: 2; inhibition at 100 µM (A₁ receptor; 10⁻⁴M): 94%; inhibition at 10 µM (A₁ receptor; 10⁻⁵M): 89%; Amount of Active Movements (average count ± S.E.M) [4, 7]: 800 ±156.8 count; inhibition at 0.1 µM (A₂ receptor [5]; [8]): 80%; inhibition at 1 µM (A₂ receptor [5]; [8]): 99%; inhibition at 10 µM (A₂ receptor [5]; [8]): 95%; inhibition at 100 µM (A₂ receptor [5]; [8]): 74%; Ki (A₂ receptor [5]): 3.9 nM
